What was measured:
Assay in all cases: relative viability (nuclei count vs DMSO), 5 days (fraction); higher = more cells survive
VX-702 + Luminespib = compound: NC(=O)c1ccc(N(C(N)=O)c2c(F)cccc2F)nc1-c1ccc(F)cc1F [VX-702] + CCNC(=O)c1noc(-c2cc(C(C)C)c(O)cc2O)c1-c1ccc(CN2CCOCC2)cc1 [Luminespib] (partner 0.01 µM)
Procedure, shortened: (§1)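 Lung cancer cell lines in 1536-well plates got either a single drug or a fixed anchor-drug dose together with five library-drug doses (not always all listed) in √10 steps, by pin tool, on the day after seeding. Nuclei were counted after 5 days, and relative viability is the treated-to-vehicle ratio of nuclei counts. Values are medians of duplicate plates.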

VX-702 + Lapatinib = compound: NC(=O)c1ccc(N(C(N)=O)c2c(F)cccc2F)nc1-c1ccc(F)cc1F [VX-702] + CS(=O)(=O)CCNCc1ccc(-c2ccc3ncnc(Nc4ccc(OCc5cccc(F)c5)c(Cl)c4)c3c2)o1 [Lapatinib] (partner 2 µM)
Procedure, shortened: as §1

Dabrafenib + OSI-027 = compound: CC(C)(C)c1nc(-c2cccc(NS(=O)(=O)c3c(F)cccc3F)c2F)c(-c2ccnc(N)n2)s1 [Dabrafenib] + COc1cccc2cc(-c3nc([C@H]4CC[C@H](C(=O)O)CC4)n4ncnc(N)c34)[nH]c12 [OSI-027] (partner 0.5 µM)
Procedure, shortened: as §1

VX-702 + AZD7762 = compound: NC(=O)c1ccc(N(C(N)=O)c2c(F)cccc2F)nc1-c1ccc(F)cc1F [VX-702] + NC(=O)Nc1cc(-c2cccc(F)c2)sc1C(=O)N[C@H]1CCCNC1 [AZD7762] (partner 0.2 µM)
Procedure, shortened: as §1

Cell Line	relative viability (VX-702 + Luminespib; first compound 0.02 µM)	relative viability (VX-702 + Luminespib; first compound 0.2 µM)	relative viability (VX-702 + Luminespib; first compound 0.6325 µM)	relative viability (VX-702 + Luminespib; first compound 2 µM)	relative viability (VX-702 + Lapatinib; first compound 0.02 µM)	relative viability (VX-702 + Lapatinib; first compound 0.2 µM)	relative viability (VX-702 + Lapatinib; first compound 0.6325 µM)	relative viability (VX-702 + Lapatinib; first compound 2 µM)	relative viability (Dabrafenib + OSI-027; first compound 0.003 µM)	relative viability (Dabrafenib + OSI-027; first compound 0.009487 µM)	relative viability (Dabrafenib + OSI-027; first compound 0.03 µM)	relative viability (Dabrafenib + OSI-027; first compound 0.09487 µM)	relative viability (Dabrafenib + OSI-027; first compound 0.3 µM)	relative viability (VX-702 + AZD7762; first compound 0.02 µM)	relative viability (VX-702 + AZD7762; first compound 0.2 µM)	relative viability (VX-702 + AZD7762; first compound 0.6325 µM)	relative viability (VX-702 + AZD7762; first compound 2 µM)
201T	1	1.04	0.992	1.07	1.06	0.991	1.12	1.09	0.306	0.786	0.642	0.656	0.808	0.585	0.561	0.509	0.449
A549	–	–	–	–	1.05	0.922	0.943	1.03	–	–	–	–	–	–	–	–	–
A-427	0.715	0.919	0.823	0.774	1.17	0.968	1.07	1.16	–	0.351	0.518	0.379	0.474	0.742	0.699	0.661	0.738
ABC-1	0.518	0.48	0.567	0.894	0.972	0.98	–	1.18	0.442	0.42	0.496	0.537	0.507	0.425	–	0.432	0.897
BEN	0.374	0.221	0.49	0.331	0.726	0.662	0.539	0.926	–	0.332	–	0.305	0.269	0.841	0.637	0.597	0.691
CAL-12T	0.565	0.574	0.318	0.363	0.61	0.603	0.611	0.664	0.523	0.68	0.902	0.566	0.645	0.517	0.644	0.58	0.625
COR-L23	0.749	0.719	0.688	0.761	0.999	0.862	0.914	1.26	0.768	0.803	0.732	0.6	0.61	–	–	–	–
COR-L 105	0.688	0.715	0.78	0.91	0.332	0.336	0.338	0.326	0.6	0.786	0.58	0.722	0.906	–	–	–	–
Calu-6	–	–	–	–	1.07	1.1	1.13	1.25	–	–	–	–	–	–	–	–	–
ChaGo-K-1	0.657	0.46	0.586	0.678	–	–	–	–	0.209	0.53	0.502	0.504	0.651	0.958	0.879	0.896	0.879
EBC-1	–	–	–	–	0.228	0.175	0.188	0.188	–	–	–	–	–	–	–	–	–
EKVX	0.899	0.822	0.878	0.942	0.215	0.22	0.226	0.127	0.649	0.79	0.693	0.652	0.729	0.726	0.673	0.407	0.776
EMC-BAC-2	1.13	1.13	1.13	1.23	0.924	0.947	0.906	0.883	0.359	0.376	0.301	0.295	0.329	1.11	1.08	1.16	1.08
EPLC-272H	0.344	0.694	0.352	0.272	1.09	0.751	1.1	1.59	0.234	0.371	0.31	0.258	0.249	0.0171	0.202	0.234	0.211
H3255	1.09	0.803	0.957	1.11	0.24	0.254	0.26	0.241	0.572	0.579	0.62	0.56	0.583	0.987	0.901	0.994	0.996
HARA	0.743	0.75	0.58	0.947	0.653	0.69	0.91	0.825	0.262	0.618	–	0.327	0.864	0.313	–	0.306	0.331
HCC-15	0.26	0.295	0.288	0.349	0.837	0.838	0.857	0.928	0.547	0.695	0.67	0.53	0.622	1.31	1.18	1.32	1.19
HCC-44	0.84	0.983	0.909	1.48	1.03	1.03	0.982	1.05	0.45	0.614	0.511	0.478	0.591	1.05	1.03	1.06	1.04
HCC-78	–	–	–	–	0.871	0.456	0.603	0.98	–	0.36	0.334	0.354	0.38	0.541	0.589	0.774	0.798

From the supplement of paper PMC10307832
